Patent publication US12662497B2, “Benzazepine compounds, preparation method therefor and pharmaceutical use thereof” (Shanghai Senhui Medicine Co., Ltd., priority 2021, dated 2026)
One block for each compound: values may come before it.

Key:
[1] = biological target: T1, Arginine vasopressin receptor 2 (AVPR2) (Homo sapiens, UniProt P30518); test: Arginine vasopressin receptor 2 (AVPR2) receptor cAMP assay in Flpin-CHO-AVPR2 cells; format: cell-based, humans; details: arginine vasopressin stimulation
T1 construct: host or cells: Flpin-CHO (CHO cells)
T1 sequence (P30518 whole entry): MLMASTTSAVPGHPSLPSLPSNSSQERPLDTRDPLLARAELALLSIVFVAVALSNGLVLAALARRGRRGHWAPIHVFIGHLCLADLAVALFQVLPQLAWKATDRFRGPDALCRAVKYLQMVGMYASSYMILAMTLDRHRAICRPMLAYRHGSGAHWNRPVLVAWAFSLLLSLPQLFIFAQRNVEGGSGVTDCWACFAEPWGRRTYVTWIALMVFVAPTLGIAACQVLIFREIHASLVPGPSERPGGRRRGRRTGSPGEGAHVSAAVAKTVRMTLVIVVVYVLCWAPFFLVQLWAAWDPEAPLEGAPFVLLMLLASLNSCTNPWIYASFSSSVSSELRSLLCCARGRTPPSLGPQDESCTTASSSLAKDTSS
Description: The test compound was 5-fold diluted with assay buffer (Hank's balanced salt solution+20 mM HEPES+0.1% BSA+500 μM IBMX (manufacturer: Sigma)). The highest initial concentration of the test compound in the assay was 10 μM.
Flpin-CHO-AVPR2 (the cell strain was constructed by Pharmaron Beijing Co., Ltd.; AVPR2 was derived from humans)
• 1) Cells were digested, resuspended in assay buffer and inoculated into a 384-well cell culture plate at a density of 8000 cells per well and a volume of 15 μL per well. • 2) The compound was diluted with assay buffer. • 3) 2.5 μL of the compound was added to each well, and the plate was incubated at 37° C. for 10 min. • 4) Arginine vasopressin (manufacturer: MedChemExpress) was diluted with assay buffer to a concentration of 16 μM. • 5) 2.5 μL of the 16 μM solution of arginine vasopressin was added, and the plate was incubated at 37° C. for 30 min. • 6) Eu-cAMP tracer and Ulight-anti-cAMP were thawed and diluted with lysis buffer (Eu-cAMP tracer, Ulight-anti-cAMP and lysis buffer were all taken from the cAMP assay kit (manufacturer: Perkin Elmer)). • 7) 10 μL of Eu-cAMP tracer was added to the experimental wells, and then 10 μL of Ulight-anti-cAMP was added to the experimental wells. • 8) The reaction plate was centrifuged at room temperature at 200 g for 30 s and left at 25° C. for 1 h, and data collection was performed using a microplate reader.

[2] = Pharmacokinetic study in dogs (Test Example 1), intragastric administration; format: in vivo; details: beagles; for AUC(0-inf) / AUC(0-t) / Cmax / Tmax / half-life: beagle, dog, plasma, mean value
Description: (§1) 1.1.1. Experimental Animals: Beagles, Non-Naïve, Sourced from the Animal Repository of Medicilon: 999M-004.
A proper amount of tolvaptan and compound 5 was accurately weighed out and well mixed with a proper volume of 1% hydroxypropyl methylcellulose by vortexing or ultrasonication to give a 0.5 mg/mL solution of tolvaptan and a 2.15 mg/mL solution of compound 5 for intragastric administration.
(§2) Tolvaptan and compound 5 were intragastrically administrated. Blood was collected before the administration and 10 min, 30 min, 1 h, 2 h, 4 h, 6 h, 8 h and 24 h after the administration. EDTA-K2 was used as the anticoagulant, and the esterase inhibitor DDVP (manufacturer: Sigma) was added. Plasma samples were separated and cryopreserved at −70° C., and the compound 5 and tolvaptan levels were determined by LC-MS/MS.

[3] = Pharmacokinetic study in rats (Test Example 4), intragastric administration; format: in vivo; details: Sprague-Dawley, rat, plasma, SD rats, mean value
Description: 1.1.1. Experimental Animals: SD Rats, Male and Female, Weighing about 180-220 g. Housing Environment: SPF. The Animals were Transferred from the Animal Repository (999M-017) of the Laboratory Animal Management Department, Shanghai Institute of Planned Parenthood Research. 1.1.2. Administration Regimen:
as §2, with “0.5 h,” for “30 min,”, “DDVP” for “DDVP (manufacturer: Sigma)”

[4] = Pharmacokinetic study in beagles (Test Example 5), intravenous drip and intragastric administration; format: in vivo; details: for AUC(0-t) / Cmax / Tmax / half-life: beagle, dog, plasma
Description: as §1
(§3) A proper amount of compound 1b disodium salt and compound 5 was accurately weighed out and well mixed with a proper volume of normal saline by vortexing or ultrasonication to give a 0.5 mg/mL clear solution of compound 1b disodium salt, a 0.25 mg/mL clear solution of compound 5 and a 1.35 mg/mL clear solution of compound 5 for intravenous drip administration.
(§4) A proper amount of tolvaptan and compound 5 was accurately weighed out and well mixed with a proper volume of 1% hydroxypropyl methylcellulose by vortexing or ultrasonication to give a 5 mg/mL solution of tolvaptan and a 1.35 mg/mL solution of compound 5 for intragastric administration.
(§5) The compounds of the intravenous administration group were administered via an intravenous drip over 1 h. The compounds of the intragastric administration group were intragastrically administered. Time points of blood collection were: before the administration and 30 min, 1 h, 1.5 h, 2 h, 4 h, 6 h, 12 h and 24 h after the administration. About 1 mL of blood was collected via the jugular vein or in other suitable ways. EDTA-K2 was used as the anticoagulant, and the esterase inhibitor DDVP was added. Plasma samples were separated and cryopreserved at −70° C., and the levels of related compounds in vivo were determined by LC-MS/MS. About 0.5 mL of blood was collected via the jugular vein or in other suitable ways, placed into separator gel blood collection tubes (without an anticoagulant) and centrifuged at room temperature at 3500 rpm for 10 min to separate the serum, and the concentration of Na^+ in the serum was determined by using the ion-selective electrode method.

beagles = test: Blood sodium level (serum Na+, ion-selective electrode) in beagles (Test Example 5); format: in vivo; details: compound 5 administered intragastrically 2.7 mg/kg, FIG. 1
Description: as §3, §4
as §5, with “Time points of blood collection were: before the administration and 30 min, 1 h, 1.5 h, 2 h, 4 h, 6 h, 12 h and 24 h after the administration. About 1 mL of blood was collected via the jugular vein or in other suitable ways. EDTA-K2 was used as the anticoagulant, and the esterase inhibitor DDVP was added.” left out

[5] = Pharmacokinetic study in rats (Test Example 3), intravenous injection; format: in vivo; details: SD rats
Source text: 1.1.1. Experimental Animals: SD Rats, Male and Female, Weighing about 220 g. Housing Environment: SPF. The Animals were Transferred from the Animal Repository (999M-017) of the Laboratory Animal Management Department, Shanghai Institute of Planned Parenthood Research. 1.1.2. Administration Regimen:
A proper amount of the compound was accurately weighed out and well mixed with a proper volume of 10% DMSO+35% PEG400+55% normal saline by vortexing or ultrasonication to give a clear solution for intravenous injection.
Blood was collected at various time points after intravenous injection (before the administration and 0.0833, 0.25, 0.5, 1, 2, 4, 8 and 24 h after the administration). EDTA-K2 was used as the anticoagulant, and the esterase inhibitor DDVP was added. Plasma samples were separated and cryopreserved at −70° C., and the compound and tolvaptan levels were determined by LC-MS/MS.

[6] = Compound 5 administered PO 4.3 mg/kg, molecule detected Compound 5
[7] = intragastric, tolvaptan converted in vivo from compound 5 vs tolvaptan administered
[8] = female, Compound 5 PO 12.9 mg/kg, molecule detected Compound 5
[9] = male, Compound 5 PO 12.9 mg/kg, molecule detected Compound 5
[10] = iv, Compound 5 0.5 mg/kg i.v. drip over 1 h, molecule detected Compound 5, mean value
[11] = iv, Compound 5 2.7 mg/kg i.v. drip over 1 h, molecule detected Compound 5, mean value
[12] = po, Compound 5 2.7 mg/kg p.o., molecule detected Compound 5, mean value
[13] = both sexes, Sprague-Dawley, rat, plasma, iv, Compound M i.v. 3.91 mg/kg, molecule detected Compound M, mean value
[14] = Tolvaptan administered PO 1 mg/kg, molecule detected Tolvaptan
[15] = female, Tolvaptan PO 9 mg/kg, molecule detected Tolvaptan
[16] = male, Tolvaptan PO 9 mg/kg, molecule detected Tolvaptan
[17] = po, Tolvaptan 10 mg/kg p.o., molecule detected Tolvaptan, mean value

IC50 [1]: 8 nM | AUC(0-inf) [2, 6]: 162 ng·h/mL | AUC(0-t) [2, 6]: 156 ng·h/mL | Cmax [2, 6]: 88.7 ng/mL | Tmax [2, 6]: 0.389 h | half-life [2, 6]: 1.43 h | exposure compared with tolvaptan [2, 7]: higher exposure | half-life compared with tolvaptan [2, 7]: longer half-life | AUC(0-t) [3, 8]: 58.4 ng·h/mL | Cmax [3, 8]: 50.1 ng/mL | Tmax [3, 8]: 0.167 h | half-life [3, 8]: 1.67 h | AUC(0-t) [3, 9]: 46.1 ng·h/mL | Cmax [3, 9]: 44.4 ng/mL | Tmax [3, 9]: 0.167 h | half-life [3, 9]: 1.55 h | AUC(0-t) [4, 10]: 1200 ng·h/mL | Cmax [4, 10]: 889 ng/mL | Tmax [4, 10]: 1 h | half-life [4, 10]: 0.704 h | AUC(0-t) [4, 11]: 7850 ng·h/mL | Cmax [4, 11]: 5700 ng/mL | Tmax [4, 11]: 1 h | half-life [4, 11]: 0.647 h | AUC(0-t) [4, 12]: 122 ng·h/mL | Cmax [4, 12]: 61.5 ng/mL | Tmax [4, 12]: 0.5 h | half-life [4, 12]: 1 h | AUC0-t of tolvaptan converted from compound 5 compared with tolvaptan administered intragastrically ([4]; intragastric, compound 5 at a relatively low molar dose (2.7 mg/kg vs tolvaptan 10 mg/kg)): higher AUC0-t
Structure (SMILES): Cc1ccccc1C(=O)Nc1ccc(C(=O)N2CCCC(OCOP(=O)(O)OCC[N+](C)(C)C)c3cc(Cl)ccc32)c(C)c1 (stereo not drawn) [Compound 5, ((7-Chloro-1-(2-methyl-4-(2-methylbenzamido)benzoyl)-2,3,4,5-tetrahydro-1H-benzo[b]azepin-5-yl)oxy)methyl (2-(trimethylammonio)ethyl) phosphate]
elevating the blood sodium level (beagles): has the effect of elevating the blood sodium level

AUC(0-inf) [5, 13]: 824 ng·h/mL | AUC(0-t) [5, 13]: 786 ng·h/mL | Cmax [5, 13]: 719 ng/mL | Tmax [5, 13]: 8.34 min | clearance [5, 13]: 90.8 mL/min/kg | half-life [5, 13]: 1.17 h | Vd ([5]; both sexes, Sprague-Dawley, rat, plasma, iv, Compound M i.v. 3.91 mg/kg, molecule detected Compound M, mean value, read-out: Vss): 6.47 L/kg
Structure (SMILES): Cc1ccccc1C(=O)Nc1ccc(C(=O)N2CCCC(OC(=O)[C@@H](N)C(C)C)c3cc(Cl)ccc32)c(C)c1 (stereo partly drawn) [Compound M]

plasma level of administered molecule ([5]; Hydrochloride of Compound 16 i.v. 4.41 mg/kg, molecule detected Hydrochloride of Compound 16): Undetectable
Structure (SMILES): Cc1ccccc1C(=O)Nc1ccc(C(=O)N2CCCC(OC(=O)OCOC(=O)C(N)C(C)C)c3cc(Cl)ccc32)c(C)c1.Cl (stereo not drawn) [Hydrochloride of Compound 16]

AUC(0-inf) [2, 14]: 26.3 ng·h/mL | AUC(0-t) [2, 14]: 21.6 ng·h/mL | Cmax [2, 14]: 7.08 ng/mL | Tmax [2, 14]: 1.5 h | half-life [2, 14]: 1.94 h | AUC(0-t) [3, 15]: 1820 ng·h/mL | Cmax [3, 15]: 412 ng/mL | Tmax [3, 15]: 2 h | half-life [3, 15]: 2.64 h | AUC(0-t) [3, 16]: 55.5 ng·h/mL | Cmax [3, 16]: 20.3 ng/mL | Tmax [3, 16]: 1.67 h | AUC(0-t) [4, 17]: 10.2 ng·h/mL | Cmax [4, 17]: 3.83 ng/mL | Tmax [4, 17]: 1.17 h | half-life [4, 17]: 2.61 h
Structure (SMILES): Cc1ccccc1C(=O)Nc1ccc(C(=O)N2CCCC(O)c3cc(Cl)ccc32)c(C)c1 (stereo not drawn) [Tolvaptan, reference compound]
